Experimental data as given in patent publication US20130023501A1, “PHARMACEUTICAL COMPOSITION COMPRISING SOLVENT MIXTURE AND A VITAMIN D DERIVATIVE OR ANALOGUE” (LEO PHARMA A/S, priority 2009, published 2013).

Assays:
[1] = Amount of MCT required to dissolve calcipotriol in a tested ointment composition; assay type: physicochemical
[2] = Skin penetration and permeation, Franz diffusion cells; assay type: in vitro ADME; conditions: addition of menthol to the composition; 21 hours; pig ear skin; FIG. 1
Experimental: To investigate the skin penetration and permeation of calcipotriol from compositions of the invention, a skin diffusion experiment was conducted. Full thickness skin from pig ears was used in the study. The ears were kept frozen at −18° C. before use. On the day prior to the experiment the ears were placed in a refrigerator (5±3° C.) for slow defrosting. On the day of the experiment, the hairs were removed using a veterinary hair trimmer. The skin was cleaned for subcutaneous fat using a scalpel and two pieces of skin were cut from each ear and mounted on Franz diffusion cells in a balanced order.
Static Franz-type diffusion cells with an available diffusion area of 3.14 cm^2 and receptor volumes ranging from 8.6 to 11.1 ml—were used in substantially the manner described by T. J. Franz, “The finite dose technique as a valid in vitro model for the study of percutaneous absorption in man”, in Current Problems in Dermatology, 1978, J. W. H. Mall (Ed.), Karger, Basel, pp. 58-68. The specific volume was measured and registered for each cell. A magnetic bar was placed in the receptor compartment of each cell. […]
The in vitro skin permeation of each test composition was tested in 6 replicates (i.e. n=6). […] A glass spatula was used for the application, and the residual amount of the composition was determined so as to give the amount of the composition actually applied on the skin. […]

[3] = one study, Hannuksela et al. 1975; cited from earlier work

MCT required to completely dissolve calcipotriol [1]	skin permeation of calcipotriol [2]	SMILES	number of irritant reactions to propylene glycol [3] [%]
about 50%	significant increase	C=C1/C(=C\C=C2/CCC[C@]3(C)[C@@H]([C@H](C)/C=C/[C@@H](O)C4CC4)CC[C@@H]23)C[C@@H](O)C[C@@H]1O [calcipotriol, Calcipotriol]	
		CC(O)CO (stereo not drawn) [propylene glycol]	12.5
